Measurements published in patent publication US20030069194A1, “Inhibition of viral replication by targeting RNA-DNA complexes” (priority 2001, published 2003).
Counter-ions that a name gives are not always drawn.

Legend:
[1] = system: 18C-18D duplex; assay: UV melting (thermal denaturation) and ΔTm analysis, 18C-18D duplex; format: binding, HIV-1; settings: for Ka (ΔTm-derived association constant): extrapolated to 25° C.; for enhancement of thermal stability of the duplex (ΔTm): 18C-18D, drug to duplex ratio (rdup) 3.0, FIG. 3b
Experimental: All UV absorbance experiments were conducted on an AVIV Model 14DS Spectrophotometer (Aviv Associates; Lakewood, N.J.) equipped with a thermoelectrically controlled cell holder. A quartz cell with a 1 cm pathlength was used for all the absorbance studies. Absorbance versus temperature profiles were measured at 274 nm with a 6 sec averaging time. The temperature was raised in 0.5° C. increments, and the samples were allowed to equilibrate for 1 min at each temperature setting. In these thermal denaturation studies, 18C-18R and 18C-18D solutions were […] in duplex and contained aminoglycoside at concentrations ranging from 0 to 12 μM. The duplex solutions were preheated for 5 min at 85° C. and then cooled to room temperature prior to addition of the drug. The buffer solutions for the UV melting experiments contained 10 mM PIPES (pH 6.0) and 5 mM MgCl2. For each optically detected transition, the melting temperature (Tm) was determined. Marky, L. A. & Breslauer, K. J. Calculating thermodynamic data for transitions of any molecularity from equilibrium melting curves, Biopolymers 26, 1601-1620 (1987).
The ΔTm method described below was used to derive aminoglycoside-duplex association constants (Ka). Measured aminoglycoside-induced changes in the thermal stability of the host duplexes (FIG. 3) were used to estimate the apparent drug-duplex association constants at Tm (KTm) from the following expression (Crothers, D. M. Statistical thermodynamics of nucleic acid melting transitions with coupled binding equilibria, Biopolymers 10, 2147-2160 (1971)): [formula]
In this expression, TmO and Tm are the melting temperatures of the drug-free and drug-bound duplex, respectively, n is the number of drug molecules bound per duplex, ΔHdup is the enthalpy change for the melting of the duplex in the absence of bound drug, and L is the free drug concentration at Tm (which can be estimated by one half the total drug concentration). Values of ΔHdup for the 18C-18R and 18C-18D duplexes were determined from the shapes of their UV melting profiles using the following relationship (Marky, L. A. & Breslauer, K. J. Calculating thermodynamic data for transitions of any molecularity from equilibrium melting curves, Biopolymers 26, 1601-1620 (1987)): [formula]
where α is the fraction of single strand. This calculation yielded ΔHdup values of 157.8 kcal/mol for the 18C-18R duplex and 130.3 kcal/mol for the 18C-18D duplex. For meaningful comparisons, the calculated apparent binding constants at Tm should be extrapolated to a common reference temperature using the standard relationship: [formula]
where ΔHb is the enthalpy of drug binding.

[2] = system: 18C-18R duplex; assay: Isothermal titration calorimetry (ITC), 18C-18R duplex; format: binding, HIV-1; settings: for ΔHb (binding enthalpy): 18C-18R duplex, ITC at 25° C.
Experimental: Isothermal calorimetric measurements were performed at 25° C. on a MicroCal VP-ITC (MicroCal, Inc., Northampton, Mass.). In a typical experiment, 5 μl aliquots of 500 μM aminoglycoside were injected from a 250 μl rotating (430 RPM) syringe into an isothermal sample chamber containing 1.31 mL of either a 18C-18R solution that was 10 μM in duplex or a 18C-18D solution that was 15 μM in duplex. Each experiment of this type was accompanied by the corresponding control experiment in which 5 μL aliquots of 500 μM drug were injected into a solution of buffer alone. The duration of each injection was 5 seconds and the delay between injections was 240 seconds. The initial delay prior to the first injection was 60 seconds. Each injection generated a heat burst curve (μcal/sec vs. sec). The area under each curve was determined by integration [using the Origin version 5.0 software (MicroCal, Inc., Northampton, Mass.)] to obtain a measure of the heat associated with that injection. The heat associated with each drug-buffer injection was subtracted from the corresponding heat associated with each drug-duplex injection to yield the heat of drug binding for that injection. The calorimeter was calibrated both electronically and chemically. Pilch, D. S., Kirolos, M. A., Liu, X., Plum, G. E. & Breslauer, K. J. Berenil [1,3-bis-(4′-amidinophenyl)triazene] binding to DNA duplexes and to a RNA duplex: Evidence for both intercalative and minor groove binding properties, Biochemistry 34, 9962-9976 (1995). All duplex solutions were preheated for 5 minutes at 85° C. and then cooled to room temperature prior to their use in the ITC experiments. The buffer solutions for the ITC experiments contained 10 mM PIPES (pH 6.0) and 5 mM MgCl2.
Table 1 summarizes the apparent association constants at 25° C. that were calculated using equations (1)-(3) for neomycin and paromomycin binding to the 18C-18R and 18C-18D duplexes. The drug binding enthalpies (ΔHb) required for extrapolation of the binding constants at Tm to common reference temperature of 25° C. using equation (3) were determined using isothermal titration calorinietry (ITC). […] Each of the heat burst curves in FIG. 4 corresponds to a single drug injection, with the seven injections resulting in a final drug to duplex ratio (rdup) of either 0.83 (when 18C-18D served as the target duplex) or 1.25 (when 18C-18R served as the target duplex). The areas under these heat burst curves were determined by integration to yield the associated injection heats. For each titration, the seven injection heats were similar in magnitude, an observation consistent with all of the injected drug being bound by the host duplex. These injection heats were corrected by subtraction of the corresponding dilution heats derived from the injection of identical amounts of drug into buffer alone. The resulting corrected injection heats then were divided by the total concentration of injected drug and averaged to yield the ΔHb values listed in Table 1.

Row | Compound | difference in affinity, neomycin greater than paromomycin ([1]; 18C-18D duplex) | Ka (ΔTm-derived association constant) ([1]; 18C-18D duplex) | enhancement of thermal stability of the duplex (ΔTm) [1] | ΔHb (binding enthalpy) ([2]; listed as Neomycin, trisulfate trihydrate) | ΔHb (binding enthalpy) ([2]; trisulfate trihydrate) | binding stoichiometry ([2]; ITC, 18C-18R) | ΔHb (binding enthalpy) [2] | ΔHb (binding enthalpy) ([2]; listed as Paromomycin)
1 | Neomycin trisulfate trihydrate | 9 fold | (1.7 ± 0.3) × 10^6 M^−1 | 4.1 °C | -8.8 ± 0.1 kcal/mol | -8.8 kcal/mol | approximately five |  | 
2 | NC[C@@H]1O[C@H](O[C@H]2[C@@H](O)[C@H](O[C@@H]3[C@@H](O)[C@H](N)C[C@H](N)[C@H]3O[C@H]3O[C@H](CO)[C@@H](O)[C@H](O)[C@H]3N)O[C@@H]2CO)[C@H](N)[C@@H](O)[C@@H]1O [paromomycin, paromomycin sulfate] |  | (1.9 ± 0.8) × 10^5 M^−1 | 1.1 °C |  |  |  | -4.5 kcal/mol | -4.5 ± 0.1 kcal/mol
